Activity calls are given as the source filed them. No cut-off for these calls is given here.
What was measured:
[1] = biological target: T1, Bile acid receptor (Homo sapiens, UniProt Q96RI1); assay: Antagonist activity at FXR (unknown origin) expressed in HEK293T cells cotransfected with pCMV-Script-hFXR/pGL4.11-hSHP-Luciferase incubated for 24 hrs in presence of GW4064 by Steady-glo luciferase assay; format: cell-based
T1 sequence (Q96RI1 whole entry): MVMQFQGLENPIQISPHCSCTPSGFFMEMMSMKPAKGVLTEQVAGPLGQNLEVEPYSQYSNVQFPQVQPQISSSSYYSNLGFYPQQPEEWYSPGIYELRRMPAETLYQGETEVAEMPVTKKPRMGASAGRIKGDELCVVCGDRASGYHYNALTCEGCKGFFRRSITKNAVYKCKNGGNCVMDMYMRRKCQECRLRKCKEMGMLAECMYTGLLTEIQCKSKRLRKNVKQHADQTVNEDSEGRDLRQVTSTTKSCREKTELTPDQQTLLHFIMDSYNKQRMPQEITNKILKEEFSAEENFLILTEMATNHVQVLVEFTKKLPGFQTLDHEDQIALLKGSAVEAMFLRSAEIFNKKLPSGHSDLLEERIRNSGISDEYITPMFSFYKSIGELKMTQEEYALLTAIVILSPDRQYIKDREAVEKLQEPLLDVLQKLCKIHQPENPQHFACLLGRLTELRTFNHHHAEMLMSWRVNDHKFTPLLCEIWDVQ

[2] = Cytotoxicity against HEK293T cells cotransfected with pCMV-Script-hFXR/pGL4.11-hSHP-Luciferase incubated for 24 hrs in presence of GW4064 by celltiter-blue cell viability assay; format: toxicity, cell-based, HEK-293T; details: human
[3] = biological target: T2, Bile acid receptor (Mus musculus) (UniProt Q60641); assay: In vivo antagonist activity against FXR in microbeta depleted mouse assessed as reduction in taurocholic acid induced Shp mRNA expression in ileum at 10 mg/kg, po incubated for 2 to 48 hrs; format: functional, organism-based; details: time 2-48 hrs
T2 sequence (whole entry): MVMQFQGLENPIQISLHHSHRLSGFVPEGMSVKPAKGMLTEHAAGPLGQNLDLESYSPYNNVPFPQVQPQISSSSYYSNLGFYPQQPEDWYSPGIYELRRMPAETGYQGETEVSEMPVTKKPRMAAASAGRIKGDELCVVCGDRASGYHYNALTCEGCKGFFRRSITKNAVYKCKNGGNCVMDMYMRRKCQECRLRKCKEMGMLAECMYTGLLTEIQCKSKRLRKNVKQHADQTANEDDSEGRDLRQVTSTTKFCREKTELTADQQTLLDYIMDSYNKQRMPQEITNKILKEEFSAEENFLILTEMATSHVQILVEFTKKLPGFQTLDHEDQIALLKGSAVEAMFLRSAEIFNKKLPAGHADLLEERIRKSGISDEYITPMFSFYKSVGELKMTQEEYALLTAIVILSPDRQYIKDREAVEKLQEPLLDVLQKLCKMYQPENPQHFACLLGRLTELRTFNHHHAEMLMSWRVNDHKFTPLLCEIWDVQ

[4] = biological target: T2, Bile acid receptor (Mus musculus); assay: In vivo antagonist activity against FXR in microbeta depleted mouse assessed as reduction in taurocholic acid induced Fgf15 mRNA expression in ileum at 10 mg/kg, po incubated for 2 to 48 hrs; format: functional, organism-based; details: time 2-48 hrs
[5] = biological target: T2, Bile acid receptor (Mus musculus); assay: In vivo antagonist activity against FXR in microbeta depleted mouse assessed as reduction in taurocholic acid induced FXR mRNA expression in hepatic signaling at 10 mg/kg, po incubated for 2 to 48 hrs; format: functional, organism-based; details: time 2-48 hrs
[6] = tested on: Mus musculus; assay: Anti-NASH activity in GAN diet-induced […] mouse assessed as reduction of dihydroceramide level in serum administered orally for 12 weeks; format: functional, organism-based; details: route po
[7] = tested on: Mus musculus; assay: Anti-NASH activity in GAN diet-induced […] mouse assessed as reduction of glycosyl-ceramide level in serum administered orally for 12 weeks; format: functional, organism-based; details: route po
[8] = tested on: Mus musculus; assay: Anti-NASH activity in GAN diet-induced […] mouse assessed as reduction of sphinogo-myelin level in serum administered orally for 12 weeks; format: functional, organism-based; details: route po
[9] = tested on: Mus musculus; assay: Anti-NASH activity in GAN diet-induced […] mouse assessed as reduction of ceramide level in serum administered orally for 12 weeks; format: functional, organism-based; details: route po
[10] = organism: Mus musculus; assay: Anti-NASH activity in GAN diet-induced […] mouse assessed as increase in hepatic bile acid synthesis; format: functional, organism-based
[11] = organism: Mus musculus; assay: Anti-NASH activity in GAN diet-induced […] mouse assessed as reduction of bile acid pool size in ileum; format: functional, organism-based
[12] = organism: Mus musculus; assay: Anti-NASH activity in GAN diet-induced […] mouse assessed as reduction in bile acid loss in cecum content; format: functional, organism-based
[13] = organism: Mus musculus; assay: Anti-NASH activity in GAN diet-induced […] mouse assessed as bile acid level in serum; format: functional, organism-based
[14] = organism: Mus musculus; assay: Anti-NASH activity in GAN diet-induced […] mouse assessed as bile acid level in gall bladder; format: functional, organism-based

Row | Compound | IC50 [1] [µM] | IC50 at 24 h [2] [µM] | other results
1 | CCCC(=O)O[C@@H]1CC[C@]2(C)[C@H]3CC[C@@H]4[C@H]5[C@H](C(C)C)CC[C@]5(C(=O)NCCC(=O)O)CC[C@@]4(C)[C@]3(C)CC[C@H]2C1(C)C | 9.9 | > 100 | –
2 | CCCC(=O)O[C@@H]1CC[C@]2(C)[C@H]3CC[C@@H]4[C@H]5[C@H]([C@@H](C)CO)CC[C@]5(C(=O)NCC(=O)O)CC[C@@]4(C)[C@]3(C)CC[C@H]2C1(C)C | 14.1 | > 100 | –
3 | CC(C)C(=O)O[C@@H]1CC[C@]2(C)[C@H]3CC[C@@H]4[C@H]5[C@H](C(C)C)CC[C@]5(C(=O)NCC(=O)O)CC[C@@]4(C)[C@]3(C)CC[C@H]2C1(C)C | 4.6 | > 100 | –
4 | COc1ccc(C(=O)O[C@@H]2CC[C@]3(C)[C@H]4CC[C@@H]5[C@H]6[C@H](C(C)C)CC[C@]6(C(=O)NCC(=O)O)CC[C@@]5(C)[C@]4(C)CC[C@H]3C2(C)C)cc1 | 4.1 | > 100 | –
5 | CC(C)[C@@H]1CC[C@]2(C(=O)O)CC[C@@H]3[C@H](CC[C@H]4[C@@]3(C)CC[C@H]3C(C)(C)[C@H](O)CC[C@]43C)[C@@H]12 | 7.9 | 61.7 | –
6 | CCOC(=O)O[C@@H]1CC[C@]2(C)[C@H]3CC[C@@H]4[C@H]5[C@H](C(C)C)CC[C@]5(C(=O)NCC(=O)O)CC[C@@]4(C)[C@]3(C)CC[C@H]2C1(C)C | 7.3 | > 100 | –
7 | CC(C)[C@@H]1CC[C@]2(C(=O)NCC(=O)O)CC[C@]3(C)[C@H](CC[C@@H]4[C@@]5(C)CC[C@@H](OC(=O)c6ccc(F)cc6)C(C)(C)[C@@H]5CC[C@]43C)[C@@H]12 | – | 55.7 | –
8 | CCCS(=O)(=O)O[C@@H]1CC[C@]2(C)[C@H]3CC[C@@H]4[C@H]5[C@H](C(C)C)CC[C@]5(C(=O)NCC(=O)O)CC[C@@]4(C)[C@]3(C)CC[C@H]2C1(C)C | 14 | > 100 | –
9 | CCCC(=O)O[C@@H]1CC[C@]2(C)[C@H]3CC[C@@H]4[C@H]5[C@H](C(C)C)CC[C@]5(C(=O)N[C@@H](C)C(=O)O)CC[C@@]4(C)[C@]3(C)CC[C@H]2C1(C)C | – | 37.7 | –
10 | CCNS(=O)(=O)O[C@@H]1CC[C@]2(C)[C@H]3CC[C@@H]4[C@H]5[C@H](C(C)C)CC[C@]5(C(=O)NCC(=O)O)CC[C@@]4(C)[C@]3(C)CC[C@H]2C1(C)C | – | > 100 | –
11 | CCCC(=O)O[C@@H]1CC[C@]2(C)[C@H]3CC[C@@H]4[C@H]5[C@H](C(C)C)CC[C@]5(C(=O)OCC(=O)O)CC[C@@]4(C)[C@]3(C)CC[C@H]2C1(C)C | 1.9 | 29.2 | –
12 | CC(C)[C@@H]1CC[C@]2(C(=O)NCC(=O)O)CC[C@]3(C)[C@H](CC[C@@H]4[C@@]5(C)CC[C@@H](OC(=O)c6ccccc6)C(C)(C)[C@@H]5CC[C@]43C)[C@@H]12 | 1.1 | 35 | –
13 | CC(C)[C@@H]1CC[C@]2(C(=O)NCC(=O)O)CC[C@]3(C)[C@H](CC[C@@H]4[C@@]5(C)CC[C@@H](OC(=O)C6CC6)C(C)(C)[C@@H]5CC[C@]43C)[C@@H]12 | 10 | > 100 | –
14 | CC(C)[C@@H]1CC[C@]2(C(=O)NCC(=O)O)CC[C@]3(C)[C@H](CC[C@@H]4[C@@]5(C)CC[C@@H](OC(=O)C6CCCC6)C(C)(C)[C@@H]5CC[C@]43C)[C@@H]12 | 1.6 | 2 | –
15 | CC(C)[C@@H]1CC[C@]2(C(=O)NCC(=O)O)CC[C@]3(C)[C@H](CC[C@@H]4[C@@]5(C)CC[C@@H](OC(=O)c6ccco6)C(C)(C)[C@@H]5CC[C@]43C)[C@@H]12 | > 100 | > 100 | –
16 | CCCC(=O)O[C@@H]1CC[C@]2(C)[C@H]3CC[C@@H]4[C@H]5[C@H](C(=O)CO)CC[C@]5(C(=O)NCC(=O)O)CC[C@@]4(C)[C@]3(C)CC[C@H]2C1(C)C | – | 25.3 | –
17 | CCCC(=O)O[C@@H]1CC[C@]2(C)[C@H]3CC[C@@H]4[C@H]5[C@H](C(C)C)CC[C@]5(NC(=O)NCC(=O)O)CC[C@@]4(C)[C@]3(C)CC[C@H]2C1(C)C | 1.1 | 1.3 | –
18 | CCNC(=O)O[C@@H]1CC[C@]2(C)[C@H]3CC[C@@H]4[C@H]5[C@H](C(C)C)CC[C@]5(C(=O)NCC(=O)O)CC[C@@]4(C)[C@]3(C)CC[C@H]2C1(C)C | 3.4 | 56 | –
19 | CCCC(=O)O[C@@H]1CC[C@]2(C)[C@H]3CC[C@@H]4[C@H]5[C@H]([C@@H](C)C(=O)O)CC[C@]5(C(=O)NCC(=O)O)CC[C@@]4(C)[C@]3(C)CC[C@H]2C1(C)C | 25.7 | 97.2 | –
20 | C[C@H](CCC(=O)NCC(=O)O)[C@H]1CC[C@H]2[C@@H]3[C@@H](O)C[C@@H]4C[C@H](O)CC[C@]4(C)[C@H]3CC[C@]12C [GLYCOURSODEOXYCHOLIC ACID] | – | > 100 | Activity [3]: Active; Activity [4]: Active; Activity [5]: Active; Activity [6]: Active; Activity [7]: Active; Activity [8]: Active; Activity [9]: Active; Activity [10]: Active; Activity [11]: Active; Activity [12]: Active; Activity [13]: Active; Activity [14]: Active
21 | CCCC(=O)O[C@@H]1CC[C@]2(C)[C@H]3CC[C@@H]4[C@H]5[C@H](C(C)=O)CC[C@]5(C(=O)NCC(=O)O)CC[C@@]4(C)[C@]3(C)CC[C@H]2C1(C)C | 10 | 44.3 | –
22 | CCCC(=O)O[C@H]1CC[C@]2(C)[C@H]3CC[C@@H]4[C@H]5[C@H](C(C)C)CC[C@]5(C(=O)NCC(=O)O)CC[C@@]4(C)[C@]3(C)CC[C@H]2C1(C)C | 13 | > 100 | –
23 | CCCCC(=O)O[C@@H]1CC[C@]2(C)[C@H]3CC[C@@H]4[C@H]5[C@H](C(C)C)CC[C@]5(C(=O)NCC(=O)O)CC[C@@]4(C)[C@]3(C)CC[C@H]2C1(C)C | 3 | > 100 | –
24 | CCCC(=O)O[C@@H]1CC[C@]2(C)[C@H]3CC[C@@H]4[C@H]5[C@H](C(C)C)CC[C@]5(C(=O)NCCS(=O)(=O)O)CC[C@@]4(C)[C@]3(C)CC[C@H]2C1(C)C | > 100 | > 100 | –
25 | CCCC(=O)O[C@@H]1CC[C@]2(C)[C@H]3CC[C@@H]4[C@H]5[C@H](C(C)C)CC[C@]5(NC(=O)OCC(=O)O)CC[C@@]4(C)[C@]3(C)CC[C@H]2C1(C)C | 0.9 | 1 | –
26 | CCCC(=O)O[C@@H]1CC[C@]2(C)[C@H]3CC[C@@H]4[C@H]5[C@H](C(C)C)CC[C@]5(C(=O)NCC(=O)NS(C)(=O)=O)CC[C@@]4(C)[C@]3(C)CC[C@H]2C1(C)C | 12.1 | > 100 | –
27 | CCC(=O)O[C@@H]1CC[C@]2(C)[C@H]3CC[C@@H]4[C@H]5[C@H](C(C)C)CC[C@]5(C(=O)NCC(=O)O)CC[C@@]4(C)[C@]3(C)CC[C@H]2C1(C)C | 9.1 | > 100 | –
28 | CC(C)[C@@H]1CC[C@]2(C(=O)NCC(=O)O)CC[C@]3(C)[C@H](CC[C@@H]4[C@@]5(C)CC[C@@H](OC(=O)C6CCC6)C(C)(C)[C@@H]5CC[C@]43C)[C@@H]12 | 4.1 | > 100 | –
